This is an account of results in patent US20130195870A1, “ERBB3 Mutations In Cancer” (Genentech, Inc., priority 2011, published 2013).

Test [1] deals with BaF3 cells stably expressing ERBB3 mutants together with ERBB2. Nature of the test: Survival and proliferation assay, IL-3 independent BaF3 cells. It counts as cell-based, mouse. To be noted: for blocking oncogenic signaling by ERBB3 mutants: summary statement. The method, then: BaF3 cells stably expressing the wild-type and mutant ERBB3 alone or together with EGFR or ERBB2, were washed twice in PBS and plated in 3×96-well plates in replicates of eight in complete RPMI medium without IL3. As needed cells were then treated with different concentration of NRG1 and anti-NRG1 antibody or different ERBB antibodies, tyrosine kinase or PI3K small molecule inhibitors to test their effects on survival or cell proliferation, where relevant as depicted in the figures. Viable cells at 0 h and 120 h were determined using Cell Titer-Glo luminescence cell viability kit (Promega Corp., WI) and Synergy 2 (Biotek Instrument, CA) luminescence plate reader. All the cell number values were normalized against Oh values. In order to assess proliferation of MCF10A stably expressing ERBB3-WT or mutants were washed twice in PBS and 5000 cells plated in 96-well plates in replicates of eight in triplicates serum-free media and allowed to proliferate for 5 days. Cell numbers were measure at day 0 and day 5 using the luminescence cell viability kit. […] Mean and statistical significance was determined using GraphPad V software (GraphPad, CA).

For test [2] the test system is unchanged. Nature of the test: Colony formation assay (anchorage-independent growth), BaF3 cells. It counts as cell-based, mouse. As for the experimental part: BaF3 cells stably expressing EGFR (2×10^5) or ERBB2 (50,000) along with ERBB3 wild-type or mutants, was mixed with 2 mls of IL3-free Methylcellulose ([…] Technologies, Canada) and plated on to 6 well plates and when indicated, cells were treated with different ERBB antibodies or tyrosine kinase or PI3K small molecule inhibitors before plating. Plates were then incubated at 37° C. for 2 weeks. For MCF10A colony formation, 20,000 MCF10A cells stably expressing ERBB3-WT or mutants alone or in combination with EGFR or ERBB2 were mixed with 0.35% agar in DMEM: F12 lacking serum, EGF, and NRG1 and plated on 0.5% base agar. Plates were then incubated at 37° C. for 3 weeks. The presence of colonies was assessed using Gel count imager (Oxford Optronix Ltd, UK). The number of colonies in each plate was quantified using Gel count software (Oxford Optronix Ltd, UK).

[3] abbreviates: Q809R kinase domain ERBB3 mutant, at the tested dose.
[4] abbreviates: all the mutants tested except Q809R.
Where [5] appears, read: all the ERBB3 mutants tested, co-expressed with ERBB2, no IL-3.

“Also recorded” adds a separate entry of the source.

With `CS(=O)(=O)N1CCN(Cc2cc3nc(-c4cccc5[nH]ncc45)nc(N4CCOCC4)c3s2)CC1` [GDC-0941], the blocking cell proliferation entry in test [1] (ERBB3 ECD mutants) is on record as “very effective”; in test [1] (setting [3]) it was “only partially effective; also recorded: only modestly effective”; in test [1] (setting [4]), “effective”. Moreover, the “blocking oncogenic signaling by ERBB3 mutants” value is “quite active” in test [1] (in vitro and in vivo, majority/most of the ERBB3 mutants tested); “not as effective; also recorded: reduced efficacy” in test [1] (kinase domain mutant Q809R). For the same molecule, the blocking colony formation entry was “very effective” in test [2] (ERBB3 ECD mutants), “only partially effective; also recorded: only modestly effective” in test [2] (setting [3]) and “effective” in test [2] (setting [4]).

Turning to `CS(=O)(=O)CCNCc1ccc(-c2ccc3ncnc(Nc4ccc(OCc5cccc(F)c5)c(Cl)c4)c3c2)o1` [lapatinib], the blocking cell proliferation result in test [1] (setting [5]) is listed as “quite effective”. For the same molecule, in test [2] (setting [5]), the blocking colony formation entry is given as “quite effective”.

B1: MEHD7945A: a dual ERBB3/EGFR antibody that blocks ligand binding (binds domain III of EGFR and ERBB3) (antibody, V domains shown)
VH: EVQLVESGGGLVQPGGSLRLSCAASGFTLSGDWIHWVRQAPGKGLEWVGEISAAGGYTDYADSVKGRFTISADTSKNTAYLQMNSLRAEDTAVYYCARESRVSFEAAMDYWGQGTLVTVSS
VL: DIQMTQSPSSLSASVGDRVTITCRASQNIATDVAWYQQKPGKAPKLLIYSASFLYSGVPSRFSGSGSGTDFTLTISSLQPEDFATYYCQQSEPEPYTFGQGTKVEIKR
Take B1: in test [2] (setting [5]), the blocking colony formation entry is “effective”.
